Paper PMC10786919, “Design-rules for stapled peptides with in vivo activity and their application to Mdm2/X antagonists” (Nature Communications, 2024)
pEC50, pKd: −log10 of the molar value. Values after ≈ are worked out from the molar mass of the structure shown. Like-named read-outs stand apart in the source and are kept apart here. Positions of bridges follow the written chain, without caps; N, C: chain ends. Non-standard residues stand in square brackets, D forms with d. Residues, ends and D or L forms follow the SMILES beside them. 2Nal = N[C@@H](Cc1ccc2ccccc2c1)C(=O)O; R8 = C=CCCCCCC[C@@](C)(N)C(=O)O; S5 = C=CCCC[C@](C)(N)C(=O)O

Experiments:
[1] = target: T1, human Mdm2 1–125 (Homo sapiens, UniProt Q00987); assay: Mdm2 binding by competitive fluorescence anisotropy assay (FP binding); conditions: read-out: FP binding assay KD
T1 construct: GST (N); His6 (internal); TEV cleavage site (ENLYFQG) (internal); made in house; host or cells: BL21 (DE3) Rosetta T1R Escherichia coli
Text: The TEV (tobacco etch virus) cleavage site was changed from ENLYFQS to ENLYFQG to give a fusion protein with the following sequence:
[P] is the protein concentration (Mdm2), [L] is the labeled peptide concentration, r is the anisotropy measured, r0 is the anisotropy of the free peptide, rb is the anisotropy of the Mdm2–FAM-labeled peptide complex, Kd is the dissociation constant, [L]t is the total FAM labeled peptide concentration, and [P]t is the total Mdm2 concentration. […] This value was then used to determine apparent Kd values of the respective competing ligands in subsequent competition assays in fluorescence anisotropy experiments.
The competing molecules were then titrated against the complex of the FAM-labeled peptide and protein. Apparent Kd values were determined by fitting the experimental data to equations shown below:2 r=ro+(rb−ro)×2(d^2−3e)cos(θ/3)−9/3Kd1+2(d^2−3e)cos(θ/3)−d 3 d=Kd1+Kd2+[L]st+[L]t−Pt 4 e=Lt−PtKd1+Lst+PtKd2+Kd1Kd2 5 f=−Kd1Kd2[P]t 6 θ=arcos−2d^3+9de−27f/2(d^2−3e)^3
[L]st and [L]t denote labeled ligand and total unlabeled ligand input concentrations, respectively. Kd2 is the dissociation constant of the interaction between the unlabeled ligand and the protein. In all competition experiments, it is assumed that [P]t > [L]st, otherwise considerable amounts of free labeled ligand would always be present and would interfere with measurements. […] The FAM-labeled peptide was dissolved in dimethyl sulfoxide (DMSO) at 1 mM and diluted into experimental buffer. Readings were carried out with an Envision Multilabel Reader (PerkinElmer). […] Curve-fitting was carried out using Prism 4.0 (GraphPad). […] Negative control titrations of the ligands under investigation were also carried out with the fluorescently labeled peptide (in the absence of Mdm2) to ensure no interactions were occurring between the ligands and the FAM-labeled peptide. […] Measurements were taken a minimum of three times (biological replicates) and values are reported as geometric means of the replicates.

[2] = test system: p53 responsive β-lactamase reporter in HCT116 cells; assay: cells; type: cell-based
Summary of the method: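 Read-out used the ToxBLAzer Dual Screen for β-lactamase driven by a stably integrated p53-responsive reporter. Assay: 8000 HCT116 cells per well at 0.5% final DMSO. Reported numbers are geometric means over a minimum of three biological replicates.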

[3] = test system: Jump-In T-REx CHO-K1 BLA cells; assay: cells; type: cell-based; conditions: for pEC50: read-out: TETCHO: Counterscreen EC50
[4] = Solubility assay (kinetic solubility, PBS pH 7); type: physicochemical; conditions: pH 7, PBS; for solubility kinetic: pH 7, aqueous buffer, kinetic from dmso stock, read-out: Solubility
Summary of the method: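 Reference standards were made by diluting the 10 mM stock to 100 µM in acetonitrile:methanol:DMSO 10:80:10. Solubility in µM was calculated as the sample peak area divided by the standard peak area, multiplied by the standard concentration.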

[5] = EPSA; type: physicochemical
[6] = Experimental LogD (partition coefficient); conditions: for logD: not stated, Partition Coeff LogD
[7] = Lactate dehydrogenase (LDH) release assay; type: cell-based
Summary of the method: (§1)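 Membrane damage measured as lactate dehydrogenase release (CytoTox-ONE kit) from p53-responsive β-lactamase reporter HCT116 cells plated at 8000 per well. Final DMSO 0.5%; geometric mean reported from a minimum of three biological replicates.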

[8] = test system: HCT116 cells; assay: Lactate dehydrogenase (LDH) release assay; type: cell-based
Summary of the method: as §1

[9] = 0% FBS 4Hr, read-out: p53 reporter assay: EC50
[10] = 0% FBS 4Hr, read-out: p53 reporter assay EC50

T1 sequence (Q00987 with tags, fused parts or gaps): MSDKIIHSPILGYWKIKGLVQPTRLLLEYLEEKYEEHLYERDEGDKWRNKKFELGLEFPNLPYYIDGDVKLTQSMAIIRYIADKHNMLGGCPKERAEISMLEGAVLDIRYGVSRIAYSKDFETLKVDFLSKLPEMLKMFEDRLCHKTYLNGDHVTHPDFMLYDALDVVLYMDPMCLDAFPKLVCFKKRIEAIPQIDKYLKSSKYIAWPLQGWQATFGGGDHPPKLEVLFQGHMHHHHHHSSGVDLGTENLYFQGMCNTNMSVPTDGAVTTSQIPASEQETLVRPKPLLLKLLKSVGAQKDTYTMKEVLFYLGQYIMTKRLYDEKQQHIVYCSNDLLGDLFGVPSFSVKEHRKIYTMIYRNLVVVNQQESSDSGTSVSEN

SMILES | pKd [1] | p53 reporter assay: % Effect ([2]; 0% FBS 4Hr) | pEC50 [2, 9] | p53 reporter assay: % Effect ([2]; 0% FBS 16Hr) | pEC50 ([2]; 0% FBS 16Hr, read-out: p53 reporter assay: EC50) | TETCHO: Counterscreen % Effect ([3]; 0% FBS 4Hr) | pEC50 ([3]; 0% FBS 4Hr) | TETCHO: Counterscreen % Effect ([3]; 0% FBS 16Hr) | pEC50 ([3]; 0% FBS 16Hr) | Solubility [4] | EPSA [5] | Partition Coeff LogD [6] | pEC50 ([7]; LDH: Cytotoxicity assay: EC50) | LDH: Cytotoxicity assay: % Effect [8] | solubility kinetic [4] | EPSA ([5]; EPSA) | logD [6] | pEC50 [2, 10] | pEC50 ([7]; LDH: Cytotoxicity assay EC50) | LDH: Cytotoxicity assay % Effect [8]
CC(=O)N[C@@H](CC(C)C)C(=O)N[C@H](C(=O)N[C@@H](Cc1ccccc1)C(=O)N[C@]1(C)CCCCCCC=CCCC[C@@](C)(C(=O)N[C@@H](CO)C(=O)N[C@@H](C)C(=O)N[C@@H](C)C(N)=O)NC(=O)[C@H](CC(C)C)NC(=O)[C@H](CCC(N)=O)NC(=O)[C@H](C)NC(=O)[C@H](Cc2c[nH]c3ccccc23)NC(=O)[C@H](Cc2ccc(O)cc2)NC(=O)[C@H](CCC(=O)O)NC1=O)[C@@H](C)O [MP-211] | 7.17 | 96.16% | 6.14 | 100.4% | 5.83 | 40.04% | 4.31 | 114.5% | 4.60 | 177 | 201 | 2.82 |  |  |  |  |  |  |  | 
CC(=O)N[C@@H](CC(C)C)C(=O)N[C@H](C(=O)N[C@@H](Cc1ccccc1)C(=O)N[C@]1(C)CCCCCCC=CCCC[C@@](C)(C(=O)N[C@@H](CO)C(=O)N[C@@H](C)C(=O)N[C@@H](C)C(N)=O)NC(=O)[C@H](CC(C)C)NC(=O)[C@H](CCC(N)=O)NC(=O)[C@H](C)NC(=O)[C@H](Cc2c[nH]c3ccccc23)NC(=O)[C@H](Cc2ccc(O)cc2)NC(=O)[C@H](CCC(=O)O)NC1=O)[C@@H](C)O [MP-154] | 7.35 | 150.7% | 6.38 |  |  | 205.4% | 4.57 |  |  |  |  |  | < 4.29 | 34.9% | 146 µM (≈ 254 µg/mL) | 199 A^2 | 2.87 |  |  | 
CC(=O)N[C@H](C(=O)N[C@@H](CO)C(=O)N[C@@H](Cc1ccc2ccccc2c1)C(=O)N[C@]1(C)CCCCCCC=CCCC[C@@](C)(C(=O)N[C@@H](CCC(=O)O)C(N)=O)NC(=O)[C@H](CC(C)C)NC(=O)[C@H](CC(C)C)NC(=O)[C@H](C)NC(=O)[C@H](Cc2c[nH]c3ccccc23)NC(=O)[C@H](Cc2ccc(O)cc2)NC(=O)[C@H](CCC(=O)O)NC1=O)[C@@H](C)O [MP-146] (Ac-TS[2Nal][R8]EYWALL[S5]E-NH2; staple 4-11) | 6.30 |  |  |  |  | 1.205% | < 4.30 |  |  |  |  |  |  |  |  |  |  | 4.36 | < 4.30 | 16.49%
CC(=O)N[C@H](C(=O)N[C@@H](CO)C(=O)N[C@@H](Cc1ccccc1)C(=O)N[C@]1(C)CCCCCCC=CCCC[C@@](C)(C(=O)N[C@@H](CO)C(=O)N[C@@H](C)C(=O)N[C@@H](C)C(=O)N[C@@H](CCC(=O)O)C(N)=O)NC(=O)[C@H](CC(C)C)NC(=O)[C@H](CC(C)C)NC(=O)[C@H](C)NC(=O)[C@H](Cc2c[nH]c3ccccc23)NC(=O)[C@H](Cc2ccc(O)cc2)NC(=O)[C@H](CCC(=O)O)NC1=O)[C@@H](C)O [MP-141] | > 9.00 |  |  |  |  | 2.385% | < 4.30 |  |  |  |  |  |  |  |  |  |  | 5.27 | < 4.30 | 8.71%
CC(=O)N[C@@H](CCCCN)C(=O)NCCCCCC(=O)N[C@H](C(=O)N[C@@H](CO)C(=O)N[C@@H](Cc1ccccc1)C(=O)N[C@]1(C)CCCCCCC=CCCC[C@@](C)(C(=O)N[C@@H](CCC(=O)O)C(=O)N[C@@H](CC(N)=O)C(=O)N[C@@H](Cc2ccccc2)C(N)=O)NC(=O)[C@H](CC(C)C)NC(=O)[C@H](CC(C)C)NC(=O)[C@H](C)NC(=O)[C@H](Cc2c[nH]c3ccccc23)NC(=O)[C@H](Cc2ccc(O)cc2)NC(=O)[C@H](CCC(=O)O)NC1=O)[C@@H](C)O [MP-6210] | 7.17 | 115.9% | 5.13 |  |  | 57.09% | 4.36 |  |  |  |  |  | < 4.29 | 13.27% | 74 µM (≈ 155 µg/mL) | 255 A^2 | 2.55 |  |  | 
